Reference: article PMC11846858, “Macrocarpal I induces immunogenic cell death and synergizes with immune checkpoint inhibition by targeting tubulin and PARP1 in colorectal cancer” (Cell Death Discovery, 2025)

Biological target: T1, Tubulin Beta 2B Class IIb (TUBB2B) (Homo sapiens, UniProt Q9BVA1)
T1 construct: human TUBB2B in pET28a, N-terminal His-tag, expressed in E. coli BL21 (DE3) RIL
Experiment: ITC with purified His-tagged TUBB2B; supported by DARTS in SW620 and DLD1 lysates
Assay type: binding

T1 sequence (Q9BVA1 whole entry): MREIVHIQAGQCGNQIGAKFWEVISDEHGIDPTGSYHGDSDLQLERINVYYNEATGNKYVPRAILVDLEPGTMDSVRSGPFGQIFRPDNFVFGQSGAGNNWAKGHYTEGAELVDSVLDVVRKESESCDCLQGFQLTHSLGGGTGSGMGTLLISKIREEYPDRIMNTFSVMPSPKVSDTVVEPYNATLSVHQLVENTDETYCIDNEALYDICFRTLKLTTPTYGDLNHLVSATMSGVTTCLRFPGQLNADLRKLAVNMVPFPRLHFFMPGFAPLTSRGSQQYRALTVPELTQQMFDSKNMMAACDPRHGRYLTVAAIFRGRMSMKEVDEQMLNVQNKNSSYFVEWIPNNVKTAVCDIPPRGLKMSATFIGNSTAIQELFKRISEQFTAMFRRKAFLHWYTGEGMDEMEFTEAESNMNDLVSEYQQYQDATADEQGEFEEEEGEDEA

Kd: 1540 nM
SMILES: CC(C)C[C@H](c1c(O)c(C=O)c(O)c(C=O)c1O)[C@@H]1CC[C@@](C)(O)[C@@H]2C[C@H](C(C)(C)O)CC[C@]21C [Macrocarpal I]
